The target in the first test is human recombinant Btk (Homo sapiens, UniProt Q06187). Nature of the test: Btk enzymatic activity assay (Caliper-based kinase assay). The test is classed as biochemical. To be noted: human recombinant Btk 2 nM, ATP 40 μM, room temperature 3 h, compounds of Cpd Table 1.
Chain of human recombinant Btk (Q06187 whole entry): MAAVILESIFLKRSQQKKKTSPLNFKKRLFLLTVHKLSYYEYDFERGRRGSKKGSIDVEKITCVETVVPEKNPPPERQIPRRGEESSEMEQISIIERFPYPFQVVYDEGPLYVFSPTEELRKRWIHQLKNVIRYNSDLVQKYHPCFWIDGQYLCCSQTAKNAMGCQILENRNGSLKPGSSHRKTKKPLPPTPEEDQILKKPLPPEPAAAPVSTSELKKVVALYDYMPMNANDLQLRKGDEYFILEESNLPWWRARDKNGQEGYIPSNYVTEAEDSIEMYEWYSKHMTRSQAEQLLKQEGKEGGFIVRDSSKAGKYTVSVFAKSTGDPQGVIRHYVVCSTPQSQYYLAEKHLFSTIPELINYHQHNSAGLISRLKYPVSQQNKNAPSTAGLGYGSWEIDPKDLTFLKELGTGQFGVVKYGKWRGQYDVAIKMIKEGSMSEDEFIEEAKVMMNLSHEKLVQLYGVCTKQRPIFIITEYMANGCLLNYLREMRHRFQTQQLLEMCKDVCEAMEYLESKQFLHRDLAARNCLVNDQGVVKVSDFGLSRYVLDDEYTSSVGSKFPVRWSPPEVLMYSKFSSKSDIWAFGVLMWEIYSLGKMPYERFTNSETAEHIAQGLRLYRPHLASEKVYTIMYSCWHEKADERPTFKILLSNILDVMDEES
Chain of protein target (Q06187 2-659): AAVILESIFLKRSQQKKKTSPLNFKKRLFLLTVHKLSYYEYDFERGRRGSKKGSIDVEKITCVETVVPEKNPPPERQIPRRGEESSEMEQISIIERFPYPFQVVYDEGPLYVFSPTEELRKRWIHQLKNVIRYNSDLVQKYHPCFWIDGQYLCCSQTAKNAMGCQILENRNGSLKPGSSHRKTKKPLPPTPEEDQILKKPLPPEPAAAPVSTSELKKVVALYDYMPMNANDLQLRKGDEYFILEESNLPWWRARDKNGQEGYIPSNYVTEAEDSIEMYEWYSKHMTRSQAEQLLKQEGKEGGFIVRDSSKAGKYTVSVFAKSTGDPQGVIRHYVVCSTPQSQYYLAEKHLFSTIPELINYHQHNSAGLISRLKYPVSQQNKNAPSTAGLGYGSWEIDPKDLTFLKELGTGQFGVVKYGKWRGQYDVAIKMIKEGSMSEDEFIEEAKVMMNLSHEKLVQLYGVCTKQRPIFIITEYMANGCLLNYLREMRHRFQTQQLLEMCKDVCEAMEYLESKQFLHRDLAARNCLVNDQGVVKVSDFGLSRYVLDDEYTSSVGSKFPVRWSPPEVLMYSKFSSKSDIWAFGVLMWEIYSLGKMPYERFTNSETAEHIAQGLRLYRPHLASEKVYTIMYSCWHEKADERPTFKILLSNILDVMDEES
Method: A Caliper-based kinase assay (Caliper Life Sciences, Hopkinton, Mass.) was used to measure inhibition of Btk kinase activity of a compound of Formula (IA), (I′) or (I). […] The reaction was then terminated with EDTA, final concentration 20 mM and the phosphorylated reaction product was quantified on a Caliper Desktop Profiler (Caliper LabChip 3000). […] This value is presented as the IC50.
A word on the IC50: it is the concentration that inhibits the measured activity by half. Turning to `COc1cc(-c2nn(C3CCCN(C(=O)C(C#N)=CC4CC4)C3)c3ncnc(N)c23)ccc1Oc1ccc(Cl)c(Cl)c1` (stereo not drawn) [compound 4], the IC50 came out at 61 nM.

Turning to `COc1cc(-c2nn(C3CCN(C(=O)C(C#N)=CC4CC4)CC3)c3ncnc(N)c23)ccc1Oc1ccc(Cl)c(Cl)c1` [compound 6], the IC50 amounted to 365 nM. Take `NC(=O)C(=CC1CC1)C(=O)N1CCC[C@@H](n2nc(-c3ccc(Oc4ccccc4F)cc3)c3c(N)ncnc32)C1` [Example 32A]: the IC50 was 1.7 nM. Consider `COc1cc(-c2nn(C3CCN(C(=O)C(C#N)=CC(C)(C)C)CC3)c3ncnc(N)c23)ccc1Oc1ccc(Cl)c(Cl)c1` [compound 9], for which the 50% inhibitory concentration (IC50) stood at 980 nM. With `N#CC(=CC1CC1)C(=O)NC1CCC(n2nc(-c3ccc(Oc4ccccc4)cc3)c3c(N)ncnc32)CC1` (stereo not drawn) [compound 11], the IC50 was determined as 14 nM.

In the case of `CC(C)(C)C=C(C#N)C(=O)N1CCCC(n2nc(-c3ccc(Oc4ccccc4)cc3)c3c(N)ncnc32)C1` (stereo not drawn) [Example 7, 2-(3-(4-amino-3-(4-phenoxyphenyl)-1H-pyrazolo[3,4-d]pyrimidin-1-yl)piperidine-1-carbonyl)-4,4-dimethylpent-2-enenitrile], the IC50 came out at 1.3 nM. On the same count and under the same terms, the result for `CC(Cn1nc(-c2ccc(Oc3ccccc3)cc2F)c2c(N)ncnc21)NC(=O)C(C#N)=CC(C)(C)N` (stereo not drawn) [Example 195] reads 6 nM.

The same test, now with this note: human recombinant Btk 2 nM, ATP 40 μM, room temperature 3 h, compounds of Cpd Table 2.
Turning to `CC(C)(C)C=C(C#N)C(=O)N1CCC(n2nc(-c3ccc(NC(=O)c4ccc(C(F)(F)F)cc4)cc3)c3c(N)ncnc32)CC1` [Table 2-6, N-(4-(4-amino-1-(1-(2-cyano-4,4-dimethylpent-2-enoyl)piperidin-4-yl)-1H-pyrazolo[3,4-d]pyrimidin-3-yl)phenyl)-4-(trifluoromethyl)benzamide], the IC50 was greater than 1000 nM.

With `CC(C)(C)C=C(C#N)C(=O)NC1CCC(n2nc(-c3ccc(NC(=O)c4ccc(C(F)(F)F)cc4)cc3)c3c(N)ncnc32)CC1` (stereo not drawn) [Table 2-10, N-(4-(4-amino-1-((1s,4s)-4-(2-cyano-4,4-dimethylpent-2-enamido)cyclohexyl)-1H-pyrazolo[3,4-d]pyrimidin-3-yl)phenyl)-4-(trifluoromethyl)benzamide], the IC50 is greater than 1000 nM. The same measure, in the same setting: the result for `CC(C)(C)C=C(C#N)C(=O)N1CCCC1Cn1nc(-c2ccc(NC(=O)c3ccc(C(F)(F)F)cc3)cc2)c2c(N)ncnc21` (stereo not drawn) [Table 2-5, N-(4-(4-amino-1-((1-(2-cyano-4,4-dimethylpent-2-enoyl)pyrrolidin-2-yl)methyl)-1H-pyrazolo[3,4-d]pyrimidin-3-yl)phenyl)-4-(trifluoromethyl)benzamide] reads 180 nM; that for `CC(C)(C)C=C(C#N)C(=O)NC1CCC(n2nc(-c3ccc(NC(=O)c4ccc(C(F)(F)F)cc4)cc3)c3c(N)ncnc32)CC1` (stereo not drawn) [Table 2-8, N-(4-(4-amino-1-((1r,4r)-4-(2-cyano-4,4-dimethylpent-2-enamido)cyclohexyl)-1H-pyrazolo[3,4-d]pyrimidin-3-yl)phenyl)-4-(trifluoromethyl)benzamide], greater than 1000 nM; that for `N#CC(=CC1CC1)C(=O)N1CCC(n2nc(-c3ccc(NC(=O)c4ccc(C(F)(F)F)cc4)cc3)c3c(N)ncnc32)CC1` [Table 2-2, N-(4-(4-amino-1-(1-(2-cyano-3-cyclopropylacryloyl)piperidin-4-yl)-1H-pyrazolo[3,4-d]pyrimidin-3-yl)phenyl)-4-(trifluoromethyl)benzamide], greater than 1000 nM. Take `N#CC(=CC1CC1)C(=O)N1CCCC(n2nc(-c3ccc(NC(=O)c4ccc(C(F)(F)F)cc4)cc3)c3c(N)ncnc32)C1` (stereo not drawn) [Table 2-1, N-(4-(4-amino-1-(1-(2-cyano-3-cyclopropylacryloyl)piperidin-3-yl)-1H-pyrazolo[3,4-d]pyrimidin-3-yl)phenyl)-4-(trifluoromethyl)benzamide]: the IC50 stood at 62 nM. The same measure, in the same setting: under `CC(C)(C)C=C(C#N)C(=O)N1CCCC(n2nc(-c3ccc(NC(=O)c4ccc(C(F)(F)F)cc4)cc3)c3c(N)ncnc32)C1` (stereo not drawn) [Table 2-3, N-(4-(4-amino-1-(1-(2-cyano-4,4-dimethylpent-2-enoyl)piperidin-3-yl)-1H-pyrazolo[3,4-d]pyrimidin-3-yl)phenyl)-4-(trifluoromethyl)benzamide] stands 13 nM.

Another test deals with protein target (Homo sapiens, UniProt Q06187). Briefly: Reversibility of binding (compound in solution before and after perturbation of the target, HPLC-MS/MS). The following applies: after 5 M guanidine hydrochloride denaturation and trypsin digestion. As to the method:
The following approach was developed to differentiate compounds that form irreversible bonds with their targets, such as acrylamide compounds, from compound that bind reversibly. […] The reactions were then treated with perturbations including both denaturation with 5 M guanidine hydrochloride and digestion with trypsin, disrupting proper folding of the target. […] The concentration of compound in solution was assessed both preceding and following perturbation using high performance liquid chromatography (HPLC) coupled to tandem mass spectrometry.
Take `N#CC(=CC1CC1)C(=O)N1CCC[C@@H](n2cc(-c3ccc(Oc4ccccc4)cc3)c3c(N)ncnc32)C1` [Example 27, (R)-2-(3-(4-amino-5-(4-phenoxyphenyl)-7H-pyrrolo[2,3-d]pyrimidin-7-yl)piperidine-1-carbonyl)-3-cyclopropylacrylonitrile]: the “compound in solution following perturbation of the target” value is on record as “returned to solution”.

The test is the same for the next values; noted with them: after denaturation with 5 M guanidine hydrochloride and digestion with trypsin.
For `N#CC(=CC1CC1)C(=O)N1CCC[C@@H](n2cc(-c3ccc(Oc4ccccc4)cc3)c3c(N)ncnc32)C1` [Example 27, (R)-2-(3-(4-amino-5-(4-phenoxyphenyl)-7H-pyrrolo[2,3-d]pyrimidin-7-yl)piperidine-1-carbonyl)-3-cyclopropylacrylonitrile], the “Compound in solution in the denatured or digested state?” value is on record as “yes”.

The same test, now with this note: before perturbation.
As to `N#CC(=CC1CC1)C(=O)N1CCC[C@@H](n2cc(-c3ccc(Oc4ccccc4)cc3)c3c(N)ncnc32)C1` [Example 27, (R)-2-(3-(4-amino-5-(4-phenoxyphenyl)-7H-pyrrolo[2,3-d]pyrimidin-7-yl)piperidine-1-carbonyl)-3-cyclopropylacrylonitrile], the “depletion of compound from solution in the native (folded) state” value is “depleted”.

Staying with this test, now noted: protein target at higher concentration than compound; before perturbation.
On to `N#CC(=CC1CC1)C(=O)N1CCC[C@@H](n2cc(-c3ccc(Oc4ccccc4)cc3)c3c(N)ncnc32)C1` [Example 27, (R)-2-(3-(4-amino-5-(4-phenoxyphenyl)-7H-pyrrolo[2,3-d]pyrimidin-7-yl)piperidine-1-carbonyl)-3-cyclopropylacrylonitrile], for which the “Compound in solution in the native state?” value is reported as “no”.
